Results taken from publication PMC4589676, “Functional characterization and stability improvement of a ‘thermophilic-like’ ene-reductase from Rhodococcus opacus 1CP” (Frontiers in Microbiology, 2015).

Assays:
OYERo2 [1] = target: T1, OYERo2 (Rhodococcus opacus, UniProt A0A1B1KA86, A92R/Q93R/L94I/E95R/Y96E); assay: absorption spectra and RP-HPLC of extracted flavin; format: binding; settings: variant OYERo2a; same
T1 construct: gene O4328_33150; full length, N-terminal His10-tag kept, codon-optimised synthetic gene (1101 bp) in pET16bP, E. coli BL21 (DE3); 387 residues, theoretical 41,615 Da; variant OYERo2a is GenBank KR349312
T1 sequence (A0A1B1KA86 entry or part of it A92R/Q93R/L94I/E95R/Y96E): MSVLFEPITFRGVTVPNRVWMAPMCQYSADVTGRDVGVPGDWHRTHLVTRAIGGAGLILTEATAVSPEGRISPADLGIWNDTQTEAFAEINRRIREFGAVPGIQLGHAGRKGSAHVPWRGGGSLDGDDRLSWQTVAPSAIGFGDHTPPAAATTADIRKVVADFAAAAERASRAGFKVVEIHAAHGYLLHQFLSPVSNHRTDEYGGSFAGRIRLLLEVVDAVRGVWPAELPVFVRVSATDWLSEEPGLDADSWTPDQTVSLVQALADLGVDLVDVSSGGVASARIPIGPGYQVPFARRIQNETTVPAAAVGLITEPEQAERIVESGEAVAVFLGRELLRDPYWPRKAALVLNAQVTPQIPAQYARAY

OYERo2 [2] = target: T2, OYERo2 (Rhodococcus opacus, UniProt A0A1B1KA86); assay: absorption spectra and RP-HPLC of extracted flavin; format: binding; settings: non-covalent, 1:1, co-purified
T2 construct: gene O4328_33150; full length, N-terminal His10-tag kept, codon-optimised synthetic gene (1101 bp) in pET16bP, E. coli BL21 (DE3); 387 residues, theoretical 41,615 Da; variant OYERo2a is GenBank KR349312
T2 sequence (A0A1B1KA86 entry or part of it): as the sequence (A0A1B1KA86 entry or part of it A92R/Q93R/L94I/E95R/Y96E) above, with R92A, R93Q, I94L, R95E, E96Y counted along it

[3] = target: OYERo2, ene-reductase (old yellow enzyme) from Rhodococcus opacus 1CP (Rhodococcus opacus 1CP); assay: SEC; analytical gel filtration, Superdex 200 HR 10/30, room temperature, 50 mM phosphate buffer pH 7.1 with 150 mM NaCl; high protein concentration (119 uM for OYERo2)
[4] = target: OYERo2, ene-reductase (old yellow enzyme) from Rhodococcus opacus 1CP (Rhodococcus opacus 1CP); assay: SEC; analytical gel filtration, Superdex 200 HR 10/30, room temperature, 50 mM phosphate buffer pH 7.1 with 150 mM NaCl; 30 uM enzyme, elution buffer with 200 uM NADPH
[5] = target: OYERo2, ene-reductase (old yellow enzyme) from Rhodococcus opacus 1CP (Rhodococcus opacus 1CP); assay: SEC; analytical gel filtration, Superdex 200 HR 10/30, room temperature, 50 mM phosphate buffer pH 7.1 with 150 mM NaCl; lower protein concentration (59 and 30 uM for OYERo2)
OYERo2 [6] = target: T2, OYERo2; assay: flavin absorption spectra (charge-transfer complex); format: binding; settings: phenolic ligand
Source text: flavin absorption spectra (charge-transfer complex) on OYERo2 | OYERo2 forms charge-transfer complexes with phenolic ligands. Next to 4-hydroxybenzaldehyde

Cc1cc2nc3c(=O)[nH]c(=O)nc-3n(C[C@H](O)[C@H](O)[C@H](O)COP(=O)(O)O)c2cc1C [FMN]
absorption spectra and RP-HPLC of extracted flavin (OYERo2 [1]): RP-HPLC on flavin samples extracted from purified OYERo2 and OYERo2a | absorption spectra and RP-HPLC of extracted flavin (OYERo2 [2]): The type of flavin cofactor was identified as FMN using RP-HPLC

OYERo2, ene-reductase (old yellow enzyme) from Rhodococcus opacus 1CP
stoichiometry N [3]: 4 | stoichiometry N [4]: 2 | stoichiometry N [5]: 2

O=Cc1ccc(O)cc1 [4-hydroxybenzaldehyde]
flavin absorption spectra (charge-transfer complex) (OYERo2 [6]): OYERo2 forms charge-transfer complexes with phenolic ligands. Next to 4-hydroxybenzaldehyde
